# Activity calls are given as the source filed them. The calls are words filed in the database; no cut-off is given here.
# Key:
# Escherichia coli [1] = test: Antimicrobial activity against Escherichia coli S2 expressing penicillinase TEM-1; type: functional
# Escherichia coli [2] = test: Antimicrobial activity against Escherichia coli S1 expressing penicillinase TEM-1; type: functional
# Escherichia coli [3] = test: Antimicrobial activity against Escherichia coli S7 expressing extended-spectrum beta-lactamase SHV-12 and penicillinase TEM-1; type: functional
# Escherichia coli [4] = test: Antimicrobial activity against Escherichia coli S4 expressing inhibitor-resistant TEM-34 after 12 hrs; type: functional, organism-based
# Escherichia coli [5] = test: Antimicrobial activity against Escherichia coli S7 expressing extended-spectrum beta-lactamase SHV-12 and penicillinase TEM-1 after 8 hrs; type: functional, organism-based
# Escherichia coli [6] = test: Antimicrobial activity against Escherichia coli S3 overexpressing penicillinase TEM-1after 12 hrs; type: functional, organism-based
# Escherichia coli [7] = test: Antimicrobial activity against Escherichia coli S1 expressing penicillinase TEM-1 after 8 hrs; type: functional, organism-based
# Escherichia coli [8] = test: Antimicrobial activity against Escherichia coli S2 expressing penicillinase TEM-1after 24 hrs; type: functional, organism-based
# Escherichia coli [9] = test: Antimicrobial activity against Escherichia coli S7 expressing extended-spectrum beta-lactamase SHV-12 and penicillinase TEM-1 after 24 hrs; type: functional, organism-based
# Escherichia coli [10] = test: Antimicrobial activity against Escherichia coli S1 expressing penicillinase TEM-1 after 24 hrs; type: functional, organism-based
# Escherichia coli [11] = test: Antimicrobial activity against Escherichia coli S1 expressing penicillinase TEM-1 assessed as log reduction in bacterial count after 4 to 24 hrs in presence of magnesium ions; type: functional
# Escherichia coli [12] = test: Antimicrobial activity against Escherichia coli S2 expressing penicillinase TEM-1 after 8 hrs; type: functional, organism-based
# Escherichia coli [13] = test: Antimicrobial activity against Escherichia coli S5 expressing extended-spectrum beta-lactamase TEM-116 after 8 hrs; type: functional, organism-based
# Escherichia coli [14] = test: Antimicrobial activity against Escherichia coli; type: functional
# Escherichia coli [15] = test: Antimicrobial activity against Escherichia coli S6 expressing extended-spectrum beta-lactamase TEM-116 and SHV-12 after 12 hrs; type: functional, organism-based
# Escherichia coli [16] = test: Antimicrobial activity against Escherichia coli S6 expressing extended-spectrum beta-lactamase TEM-116 and SHV-12 after 24 hrs; type: functional, organism-based
# Escherichia coli [17] = test: Antimicrobial activity against Escherichia coli S3 overexpressing penicillinase TEM-1 assessed as log reduction in bacterial count upto 8 hrs; type: functional
# Escherichia coli [18] = test: Antimicrobial activity against Escherichia coli S5 expressing extended-spectrum beta-lactamase TEM-116 after 24 hrs; type: functional, organism-based
# Escherichia coli [19] = test: Antimicrobial activity against Escherichia coli S3 overexpressing penicillinase TEM-1 after 24 hrs; type: functional, organism-based
# Escherichia coli [20] = test: Antimicrobial activity against Escherichia coli S7 expressing extended-spectrum beta-lactamase SHV-12 and penicillinase TEM-1 after 12 hrs; type: functional, organism-based
# Escherichia coli [21] = test: Antimicrobial activity against Escherichia coli S2 expressing penicillinase TEM-1 assessed as log reduction in bacterial count upto 8 hrs; type: functional
# Homo sapiens [22] = test: Clearance in human at […], po after 3 hrs; type: ADME, organism-based; set-up: route oral; conditions: in vivo
# Homo sapiens [23] = test: Clearance in human at […], po after 5 hrs to 12 hrs; type: ADME, organism-based; set-up: route oral; conditions: in vivo
# Escherichia coli [24] = test: Antimicrobial activity against Escherichia coli S6 expressing extended-spectrum beta-lactamase TEM-116 and SHV-12assessed as log reduction in bacterial count upto 8 hrs; type: functional
# Escherichia coli [25] = test: Antimicrobial activity against Escherichia coli S2 expressing penicillinase TEM-1after 12 hrs; type: functional, organism-based
# Escherichia coli [26] = test: Antimicrobial activity against Escherichia coli S5 expressing extended-spectrum beta-lactamase TEM-116 assessed as log reduction in bacterial count upto 8 hrs; type: functional
# Escherichia coli [27] = test: Antimicrobial activity against Escherichia coli S5 expressing extended-spectrum beta-lactamase TEM-116; type: functional
# Escherichia coli [28] = test: Antimicrobial activity against Escherichia coli S3 overexpressing penicillinase TEM-1 after 8 hrs; type: functional, organism-based
# Escherichia coli [29] = test: Antimicrobial activity against Escherichia coli S1 expressing penicillinase TEM-1 assessed as log reduction in bacterial count after 4 to 24 hrs in presence of calcium ions; type: functional
# Escherichia coli [30] = test: Antimicrobial activity against Escherichia coli S2 expressing penicillinase TEM-1 assessed as log reduction in bacterial count after 4 to 24 hrs in presence of magnesium ions; type: functional
# Escherichia coli [31] = test: Antimicrobial activity against Escherichia coli S1 expressing penicillinase TEM-1 after 12 hrs; type: functional, organism-based
# Escherichia coli [32] = test: Antimicrobial activity against Escherichia coli S4 expressing inhibitor-resistant TEM-34; type: functional
# Escherichia coli [33] = test: Antimicrobial activity against Escherichia coli S6 expressing extended-spectrum beta-lactamase TEM-116 and SHV-12 after 8 hrs; type: functional, organism-based
# Homo sapiens [34] = test: Drug level in human urine at […], po after 8 to 12 hrs; type: ADME, organism-based; set-up: route oral; conditions: in vivo
# Escherichia coli [35] = test: Antimicrobial activity against Escherichia coli S5 expressing extended-spectrum beta-lactamase TEM-116 assessed as log reduction in bacterial count from 3 to 24 hrs; type: functional
# Homo sapiens [36] = test: Clearance in human at […], po after 3 hrs to 5 hrs; type: ADME, organism-based; set-up: route oral; conditions: in vivo
# Escherichia coli [37] = test: Antimicrobial activity against Escherichia coli S2 expressing penicillinase TEM-1 assessed as log reduction in bacterial count after 4 to 24 hrs in presence of calcium ions; type: functional
# Escherichia coli [38] = test: Antimicrobial activity against Escherichia coli S5 expressing extended-spectrum beta-lactamase TEM-116 after 12 hrs; type: functional, organism-based
# Escherichia coli [39] = test: Antimicrobial activity against Escherichia coli S4 expressing inhibitor-resistant TEM-34 after 8 hrs; type: functional, organism-based
# Escherichia coli [40] = test: Antimicrobial activity against Escherichia coli S3 overexpressing penicillinase TEM-1; type: functional
# Escherichia coli [41] = test: Antimicrobial activity against Escherichia coli S6 expressing extended-spectrum beta-lactamase TEM-116 and SHV-12; type: functional
# Escherichia coli [42] = test: Antimicrobial activity against Escherichia coli S4 expressing inhibitor-resistant TEM-34 assessed as log reduction in bacterial count upto 8 hrs; type: functional
# Escherichia coli [43] = test: Antimicrobial activity against Escherichia coli S1 expressing penicillinase TEM-1 assessed as log reduction in bacterial count upto 8 hrs; type: functional
# Escherichia coli [44] = test: Antimicrobial activity against Escherichia coli S4 expressing inhibitor-resistant TEM-34 after 24 hrs; type: functional, organism-based
# Escherichia coli [45] = test: Antimicrobial activity against Escherichia coli S5 expressing extended-spectrum beta-lactamase TEM-116 in presence of beta-lactamase inhibitor clavulanic acid; type: functional
# Escherichia coli [46] = test: Antimicrobial activity against Escherichia coli S7 expressing extended-spectrum beta-lactamase SHV-12 and penicillinase TEM-1 in presence of beta-lactamase inhibitor clavulanic acid; type: functional
# Escherichia coli [47] = test: Antimicrobial activity against Escherichia coli S1 expressing penicillinase TEM-1 in presence of beta-lactamase inhibitor clavulanic acid; type: functional
# Escherichia coli [48] = test: Antimicrobial activity against Escherichia coli S4 expressing inhibitor-resistant TEM-34 in presence of beta-lactamase inhibitor clavulanic acid; type: functional
# Escherichia coli [49] = test: Antimicrobial activity against Escherichia coli S2 expressing penicillinase TEM-1 in presence of beta-lactamase inhibitor clavulanic acid; type: functional
# Escherichia coli [50] = test: Antimicrobial activity against Escherichia coli S3 overexpressing penicillinase TEM-1 in presence of beta-lactamase inhibitor clavulanic acid; type: functional
# Escherichia coli [51] = test: Antimicrobial activity against Escherichia coli S6 expressing extended-spectrum beta-lactamase TEM-116 and SHV-12 in presence of beta-lactamase inhibitor clavulanic acid; type: functional
compound,measurement,setting,value
O=C(O)c1cn(C2CC2)c2cc(N3CCNCC3)c(F)cc2c1=O [CIPROFLOXACIN],MIC,Escherichia coli [1],> 32 µg/mL
same,MIC,Escherichia coli [2],0.007 µg/mL
same,MIC,Escherichia coli [3],> 32 µg/mL
CO/N=C(\C(=O)N[C@@H]1C(=O)N2C(C(=O)OCOC(=O)C(C)(C)C)=C(/C=C\c3scnc3C)CS[C@H]12)c1csc(N)n1 [CEFDITOREN PIVOXIL],Activity,Escherichia coli [4],Active
same,Activity,Escherichia coli [5],inactive
same,Activity,Escherichia coli [6],Active
same,Activity,Escherichia coli [7],Active
same,Activity,Escherichia coli [8],Active
same,MIC,Escherichia coli [1],1 µg/mL
same,Activity,Escherichia coli [9],inactive
same,Activity,Escherichia coli [10],Active
same,FC,Escherichia coli [11],>4
same,Activity,Escherichia coli [12],Active
same,Activity,Escherichia coli [13],Active
same,MIC90,Escherichia coli [14],0.5 µg/mL
same,Activity,Escherichia coli [15],inactive
same,MIC,Escherichia coli [2],0.25 µg/mL
same,Activity,Escherichia coli [16],inactive
same,MIC,Escherichia coli [3],16 µg/mL
same,FC,Escherichia coli [17],>=5
same,Activity,Escherichia coli [18],inactive
same,Activity,Escherichia coli [19],Active
same,Activity,Escherichia coli [20],inactive
same,FC,Escherichia coli [21],>=4
same,CL,Homo sapiens [22],0.86 mL/min
same,CL,Homo sapiens [23],3.04 mL/min
same,FC,Escherichia coli [24],>=8
same,Activity,Escherichia coli [25],Active
same,FC,Escherichia coli [26],>=7
same,MIC,Escherichia coli [27],0.5 µg/mL
same,Activity,Escherichia coli [28],Active
same,FC,Escherichia coli [29],>4
same,FC,Escherichia coli [30],>4
same,Activity,Escherichia coli [31],Active
same,MIC,Escherichia coli [32],2 µg/mL
same,Activity,Escherichia coli [33],inactive
same,Drug uptake,Homo sapiens [34],12.7 µg/mL
same,FC,Escherichia coli [35],>=3
same,CL,Homo sapiens [36],2.88 mL/min
same,FC,Escherichia coli [37],>4
same,Activity,Escherichia coli [38],inactive
same,Activity,Escherichia coli [39],Active
same,MIC,Escherichia coli [40],1 µg/mL
same,MIC,Escherichia coli [41],8 µg/mL
same,FC,Escherichia coli [42],>=6
same,FC,Escherichia coli [43],>=3
same,Activity,Escherichia coli [44],Active
CO/N=C(\C(=O)N[C@@H]1C(=O)N2C(C(=O)O)=C(COC(N)=O)CS[C@H]12)c1ccco1 [CEFUROXIME],MIC,Escherichia coli [1],4 µg/mL
same,MIC,Escherichia coli [2],4 µg/mL
same,MIC,Escherichia coli [3],32 µg/mL
same,MIC,Escherichia coli [27],32 µg/mL
same,MIC,Escherichia coli [32],4 µg/mL
same,MIC,Escherichia coli [40],8 µg/mL
same,MIC,Escherichia coli [41],> 128 µg/mL
CC1(C)S[C@@H]2[C@H](NC(=O)[C@H](N)c3ccc(O)cc3)C(=O)N2[C@H]1C(=O)O [AMOXICILLIN],MIC,Escherichia coli [45],2 µg/mL
same,MIC,Escherichia coli [46],8 µg/mL
same,MIC,Escherichia coli [1],4 µg/mL
same,MIC,Escherichia coli [47],4 µg/mL
same,MIC,Escherichia coli [2],8 µg/mL
same,MIC,Escherichia coli [3],16 µg/mL
same,MIC,Escherichia coli [27],4 µg/mL
same,MIC,Escherichia coli [48],16 µg/mL
same,MIC,Escherichia coli [32],32 µg/mL
same,MIC,Escherichia coli [49],2 µg/mL
same,MIC,Escherichia coli [50],16 µg/mL
same,MIC,Escherichia coli [51],4 µg/mL
same,MIC,Escherichia coli [40],32 µg/mL
same,MIC,Escherichia coli [41],8 µg/mL

# Source: ChEMBL document CHEMBL1255249, “Urine bactericidal activity against Escherichia coli isolates exhibiting different resistance phenotypes/genotypes in an in vitro pharmacodynamic model simulating urine concentrations obtained after oral administration of a 400-milligram single dose of cefditoren-pivoxil” (Antimicrob Agents Chemother, 2008)
